Among the data in patent publication US7319110B2, “1H-1,2,4-triazole-3-carboxamide derivatives having cannabinoid-CB1 receptor agonistic, partial agonistic, inverse agonistic or antagonistic activity” (Solvay Pharmaceuticals B.V., priority 2002, dated 2008) are melting point values, retold here.

Structures are written as SMILES.

As usually defined, the melting point is the temperature of the solid-liquid transition.

As for `Cl.O=C(NN1CCCCC1)c1nc(-c2ccc(Cl)cc2)n(-c2ccc(Cl)cc2Cl)n1`, the melting point was 238 to 240 °C (dec.).
The molecule `Cl.O=C(NN1CCOCC1)c1nc(-c2ccc(Cl)cc2Cl)n(-c2ccc(Cl)cc2)n1` had a melting point of 224 to 226 °C.
Take `O=C(NN1CCCCC1)c1nc(-c2ccccn2)n(-c2ccc(Cl)cc2Cl)n1`: the melting point was 191 to 193 °C.
The result for `O=C(NN1CCCCC1)c1nc(-c2ccc(Cl)cc2Cl)n(-c2ccc(C(F)(F)F)cc2)n1` reads 159 to 161 °C; that for `O=C(NN1CCCCC1)c1nc(-c2cccnc2)n(-c2ccc(Cl)cc2Cl)n1`, 219 °C; that for `CC(C)(C)ONC(=O)c1nc(-c2ccc(Cl)cc2)n(-c2ccc(Cl)cc2Cl)n1`, 150 to 152 °C.
Molecule `O=C(NN1CCOCC1)c1nc(-c2ccc(Cl)cc2)n(-c2ccc(Cl)cc2Cl)n1` had a melting point of 184 to 186 °C.
The result for `Cl.O=C(NN1CCCC1)c1nc(-c2ccc(Cl)cc2Cl)n(-c2ccc(Cl)cc2)n1` reads 234 to 236 °C (dec.); that for `Cl.O=C(NN1CCCC1)c1nc(-c2ccc(Cl)cc2)n(-c2ccc(Cl)cc2Cl)n1` [Example 2, 5-(4-Chlorophenyl)-1-(2,4-dichlorophenyl)-N-(pyrrolidin-1-yl)-1H-1,2,4-triazole-3-carboxamide hydrochloride], 248 to 255 °C (dec.); that for `O=C(NC1CCCCC1)c1nc(-c2ccc(Cl)cc2)n(-c2ccc(Cl)cc2Cl)n1` [Example 3, 5-(4-Chlorophenyl)-N-cyclohexyl-1-(2,4-dichlorophenyl)-1H-1,2,4-triazole-3-carboxamide], 186 to 188 °C.
